Experimental data: PMC12594208, “SLC25A45 is required for mitochondrial uptake of methylated amino acids and de novo carnitine biosynthesis” (Molecular Cell, 2025)
Values belong to the compound of their own block, whether it stands above or below them.

Tests used:
[1] = molecular target: T1, SLC25A45-8xHis (Homo sapiens, UniProt Q8N413); test: uptake by isolated mitochondria, LC-MS; assay type: biochemical; settings: 10 μM; pH 7.25, room temperature; labelled compound
T1 construct: SLC25A45-Xa-8xHis, tag kept; in mitochondria isolated from FreeStyle 293-F cells
T1 sequence (Q8N413 1-288): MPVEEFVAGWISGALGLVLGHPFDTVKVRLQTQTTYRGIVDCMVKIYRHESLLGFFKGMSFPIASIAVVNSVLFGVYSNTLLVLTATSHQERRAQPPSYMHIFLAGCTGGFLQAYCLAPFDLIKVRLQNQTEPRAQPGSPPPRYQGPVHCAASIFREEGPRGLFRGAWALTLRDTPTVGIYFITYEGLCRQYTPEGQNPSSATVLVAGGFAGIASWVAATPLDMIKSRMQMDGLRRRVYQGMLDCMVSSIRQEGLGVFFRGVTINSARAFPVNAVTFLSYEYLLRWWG

[2] = molecular target: T2, purified human SLC25A45 (Homo sapiens, UniProt Q8N413); test: nanoDSF thermostability shift; assay type: binding; settings: 10 mM compound, 20 mM HEPES pH 7.0, 50 mM NaCl, cardiolipin/LMNG, 25-95 °C at 4 °C per min
T2 construct: codon-optimised; N-terminal extension GKPRTSPK (residues 14-21 of human oxoglutarate carrier), eight-His tag and Factor Xa site, Factor Xa cleaved; from S. cerevisiae BJ2168 mitochondria; 33,118 Da; in lauryl maltose neopentyl glycol / tetraoleoyl cardiolipin
T2 sequence (Q8N413 1-288): T1 sequence (Q8N413 1-288)

[3] = molecular target: T1, SLC25A45-8xHis; test: competition of [2H9]-TML uptake by isolated mitochondria, LC-MS; assay type: biochemical; settings: 10 mM unlabelled TML against 10 μM [2H9]-TML, 10 min, pH 7.25, room temperature

Compound: CN=C(NC)NCCC[C@H](N)C(=O)O [[^2H6]-SDMA]
uptake by isolated mitochondria, LC-MS [1]: SLC25A45 was also required for the mitochondrial uptake of the deuterium-labeled dimethylarginine isomers

ΔTm [2]: 3.4 °C
Compound: C[N+](C)(C)CCCC[C@H](N)C(=O)O [trimethyllysine]
competition of [2H9]-TML uptake by isolated mitochondria, LC-MS [3]: mitochondrial import of [^2H9]-TML was abolished by co-incubation with excess unlabeled trimethyllysine

ΔTm ([2]; isomer not told): 7.5 °C
Compound: dimethylarginine

Compound: CN(C)C(=N)NCCC[C@H](N)C(=O)O [[^2H6]-ADMA]
uptake by isolated mitochondria, LC-MS [1]: SLC25A45 was also required for the mitochondrial uptake of the deuterium-labeled dimethylarginine isomers
